How the values were obtained:
HEK293-GnRHR cells = target: T1, HEK293-GnRHR cells (Homo sapiens, UniProt P30968); assay: Intracellular calcium flux assay; type: cell-based
T1 construct: GFP; expressed in transfected cells
T1 sequence (P30968 1-328): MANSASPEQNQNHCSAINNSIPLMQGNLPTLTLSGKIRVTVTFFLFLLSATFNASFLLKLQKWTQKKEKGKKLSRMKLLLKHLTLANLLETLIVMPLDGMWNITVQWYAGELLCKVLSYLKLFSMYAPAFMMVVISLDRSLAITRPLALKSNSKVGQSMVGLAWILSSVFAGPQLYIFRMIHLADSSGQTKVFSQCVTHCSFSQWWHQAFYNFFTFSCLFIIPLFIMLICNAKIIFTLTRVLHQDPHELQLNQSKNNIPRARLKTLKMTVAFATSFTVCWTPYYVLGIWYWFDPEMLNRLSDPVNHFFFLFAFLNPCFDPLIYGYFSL
Procedure: Human embryonic kidney cell line (HEK293), and mouse cancer cell lines (MC38, 4T1) were purchased from the American Type Culture Collection (Manassas, VA, USA). All cell lines were grown in Dulbecco's Modified Essential Medium (DMEM) or Roswell Park Memorial Institute (RPMI) 1640 supplemented with 10% FBS, 100 U/mL penicillin, and 100 μg/mL streptomycin (WelGENE, Daegu, South Korea) in a humidified atmosphere of 5% CO2 at 37° C. To obtain GnRHR-overexpressing HEK293 (HEK293-GnRHR) cells, transfection of the pCMV-AC-GFP-GnRHR vector (HEK293-GnRHR) was performed using Lipofectamine™ 3000 according to the manufacturer's instructions (Cat. 100022052, Thermo Fisher Scientific, Waltham, MA, USA). Colonies of geneticin-resistant cells were selected by adding G418 (800 μg/mL, Sigma) to the culture medium. The HEK293-pCMV-AC-GFP vector (HEK293-Vector) cells were used as a mock-transfection group.
Intracellular calcium mobilization was measured using the Calcium Flux Assay Kit (Cat. ab233472, abcam) in response to different concentrations of each peptide. The percentage increase was calculated relative to basal fluorescence intensity. The experiment was performed in triplicate.

[1] = system: BAX, C-PARP, Bcl-2 in LNCaP; assay: Western blot of proteins involved in apoptosis (FIG. 9); type: cell-based, human; details: different concentrations, 48 h
Procedure: The prostate cancer cell line (LNCaP) was seeded into six-well plates and then incubated in an incubator for one day. The peptides were diluted in fresh media and then used to treat the cells. After 48 h, the media were removed, the plates were washed twice with DPBS, and 1 mL of trypsin was placed in each well to separate the cells, and 5 mL of media were added to each well to dilute the trypsin, followed by centrifugation at 1000 rpm for 5 min, thereby preparing the cells. Thereafter, proteins were extracted using a Pro-prep protein extraction kit, separated by electrophoresis, and blotted onto a membrane. The membrane was blocked by a Blotting-Grade Blocker at room temperature for 1 hour, and then primary antibodies (1000:1) were added, followed by incubation at 4° C. for one day. Thereafter, the membrane was repeatedly washed with 1×TBST (Tris 25 g, NaCl 120 g in D.W.+[…] 0.1%) every 10 min for 1 h. Then, secondary antibodies (10000:1) were added, followed by incubation at room temperature for 1 h, and then the membrane was repeatedly washed with 1×TBST every 10 min for 1 h. After incubation with […] substrates for 5 min, desired protein bands were identified using a Chemi-doc system.

MCF-7 = assay: cells; type: cell-based, human; details: human, 48 h
Procedure: (§1) To evaluate anticancer activities of the produced peptides on various types of cancer cells, MTT analysis was performed. Human prostate cancer cell lines (LNCaP, PC3, and DU145), human breast cancer cell lines (MDA-MB-231 and MCF-7), lung cancer cell line (A549), and ovarian cancer cell line (SKOV3) were cultured in RPMI media supplemented with 1% penicillin/streptomycin and 1% fetal bovine serum (all from Life Technologies, Grand Island, NY). The cells were seeded in 96-well plates containing 100 μL of growth media for 24 h. The media were removed, and then 100 μL of the peptide (solvent DPBS) at each concentration was added to each well and incubated at 37° C. for 48 h. After incubation for 48 h, 100 μL of MTT reagent was added to each well. The cells were incubated at 37° C. for 4 h, and then the supernatant was removed. Formazan crystals were dissolved in 100 μL of DMSO with gentle stirring at 37° C. for 10 min. The absorbance per well was measured at 540 nm using a VERSA max microplate reader (Molecular Devices Corp.).

LNCaP = assay: cells; type: cell-based, human; details: human, 48 h
Procedure: as §1

MC38 tumor = assay: MC38 syngeneic mouse tumor model (FIG. 19); type: in vivo; details: 1 mg/kg s.c. every day
Procedure: All mice were purchased from Central Lab Animal Inc. ([…]). They were raised in a 12 h environmental light/dark cycle with controlled temperature (22±2° C.) conditions. The experimental protocol was approved by the Sungkyunkwan University Institutional Animal Care and Use Committee (SKKUIACUC2021-06-27-1, SKKUIACUC2023-01-07-1). For the establishment of tumors, LNCaP (1×10^7), MC38 (2×10^5), and 4T1 (1×10^6) suspended in serum-free media containing 50% Matrigel was subcutaneously administered in the right flank of mice, respectively. The tumor volumes (V) were calculated using a caliper and the standard equation: V (mm^3)=0.52 (ab^2) (a=length, b=width). Once the tumor reached 100-200 mm^3, the mice were randomly divided into different groups and subcutaneously injected with a vehicle or each peptide every day.
The sequences of the TERT peptide are highly conserved in human and mouse, indicating its potential translatability to mouse cancer. […] Hot tumors are generally more responsive to immunotherapy. In contrast, ‘Cold’ tumors such as the 4T1 tumor model lack infiltrating T cells and often have a low tumor mutational burden. Without a pre-existing adaptive immune response, cold tumors are insensitive to immunotherapy. […]

## CCNC(=O)[C@@H]1CCCN1C(=O)[C@@H](NC(=O)[C@H](Cc1ccccc1)NC(=O)[C@H](CCCNC(=N)N)NC(=O)[C@H](CC(C)C)NC(=O)[C@H](CCCNC(=N)N)NC(=O)[C@H](Cc1ccc(O)cc1)NC(=O)[C@H](CO)NC(=O)[C@H](Cc1c[nH]c2ccccc12)NC(=O)[C@H](Cc1c[nH]cn1)NC(=O)[C@@H]1CCC(=O)N1)[C@@H](C)CC [HS1002]
HEK293-GnRHR cells; 100 nM
  calcium flux: increased calcium flux in HEK293-GnRHR cells
HEK293-GnRHR cells; 1 and 10 nM
  calcium flux: increased calcium flux
[1]
  expression level of BAX: increased
  expression level of Bcl-2: decreased
  expression level of C-PARP: increased
MCF-7
  Cytotoxicity (IC50) MCF-7: 53.31 ± 1.79 µg/mL
LNCaP
  Cytotoxicity (IC50) LNCaP: 6.83 ± 0.72 µg/mL
MC38 tumor
  tumor volume: diminished
  tumor weight: diminished

Reference: US20240247031A1, “COMPOSITION FOR TREATING CANCER CONTAINING TELOMERASE-TARGETING GNRH ANTAGONIST-DERIVED PEPTIDE HS1002” (Research & Business Foundation Sungkyunkwan University, priority 2023, published 2024)
